Literature values as cited in article PMC9318694 (Molecules, 2022).
Structures can show the parent of a compound that is named as a salt.

molecular target: D2R (Homo sapiens, UniProt P14416); details: Table S1; data set of actives, radio-ligand binding assays; ref ChEMBL, [50]-[70]; read-out: KI; cited from earlier work
Sequence (P14416 whole entry): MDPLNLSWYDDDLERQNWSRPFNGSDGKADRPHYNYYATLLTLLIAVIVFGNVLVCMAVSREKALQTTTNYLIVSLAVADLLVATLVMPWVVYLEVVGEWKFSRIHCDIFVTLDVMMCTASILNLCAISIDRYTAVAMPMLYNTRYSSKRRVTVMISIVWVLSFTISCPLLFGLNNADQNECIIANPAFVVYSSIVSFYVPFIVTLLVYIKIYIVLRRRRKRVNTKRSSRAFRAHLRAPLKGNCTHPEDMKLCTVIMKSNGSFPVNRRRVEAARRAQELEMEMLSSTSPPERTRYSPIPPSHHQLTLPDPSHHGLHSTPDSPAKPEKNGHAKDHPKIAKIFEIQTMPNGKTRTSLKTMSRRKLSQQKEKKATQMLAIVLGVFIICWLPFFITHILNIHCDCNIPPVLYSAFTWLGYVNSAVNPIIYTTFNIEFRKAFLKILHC

`CN[C@@H]1Cc2cccc3c2n(c(=O)n3CCOCCOCCOCCOc2ccc3c(c2)NC(=O)CC3)C1` [SC48, (R)-5-(methylamino)-1-(2-(2-(2-(2-((2-oxo-1,2,3,4-tetrahydroquinolin-7-yl)oxy)ethoxy)ethoxy)ethoxy)ethyl)-5,6-dihydro-4H-imidazo[4,5,1-ij]quinolin-2(1H)-one] and `CN[C@@H]1Cc2cccc3c2n(c(=O)n3CCCCCCCCCCCCOc2ccc3c(c2)NC(=O)CC3)C1` [SC51, (R)-5-(methylamino)-1-(12-((2-oxo-1,2,3,4-tetrahydroquinolin-7-yl)oxy)dodecyl)-5,6-dihydro-4H-imidazo[4,5,1-ij]quinolin-2(1H)-one] are within 1.5-fold of each other in Ki: 0.306 µM for the first, 0.284 µM for the second.

First: CN(CCCCOc1ccc2c(c1)NC(=O)CC2)[C@@H]1Cc2cccc3[nH]c(=O)n(c23)C1 [SC49, (R)-5-(methyl(4-((2-oxo-1,2,3,4-tetrahydroquinolin-7-yl)oxy)butyl)amino)-5,6-dihydro-4H-imidazo[4,5,1-ij]quinolin-2(1H)-one]
Second: O=C1CCc2ccc(OCCCCN3CCCN(c4ccc(O)c5[nH]c(=O)ccc45)CC3)cc2N1 [SC52, 8-hydroxy-5-(4-(4-((2-oxo-1,2,3,4-tetrahydroquinolin-7-yl)oxy)butyl)-1,4-diazepan-1-yl)quinolin-2(1H)-one]
The Ki of the first is 25-fold higher: 0.0401 µM for the first, 0.0016 µM for the second. The second binds more tightly here.

Compared with `CN[C@@H]1Cc2cccc3c2n(c(=O)n3CCOCCOCCCCc2ccccc2)C1` [SC50, (R)-5-(methylamino)-1-(2-(2-(4-phenylbutoxy)ethoxy)ethyl)-5,6-dihydro-4H-imidazo[4,5,1-ij]quinolin-2(1H)-one], `CCCN(CCN1CCN(c2ccc(-c3ccccc3)cc2)CC1)[C@H]1CCc2nc(N)sc2C1` [SC53, (S)-N6-(2-(4-([1,1'-biphenyl]-4-yl)piperazin-1-yl)ethyl)-N6-propyl-4,5,6,7-tetrahydrobenzo[d]thiazole-2,6-diamine] is 2.4-fold higher in Ki: 0.111 µM for the first, 0.264 µM for the second.

Going from `CCCN(CCN1CCN(c2cccc3ncccc23)CC1)[C@H]1CCc2nc(N)sc2C1` [SC55, (S)-N6-propyl-N6-(2-(4-(quinolin-5-yl)piperazin-1-yl)ethyl)-4,5,6,7-tetrahydrobenzo[d]thiazole-2,6-diamine] to `CCCN(CCN1CCN(c2nccc3ccccc23)CC1)[C@H]1CCc2nc(N)sc2C1` [SC56, (S)-N6-(2-(4-(isoquinolin-1-yl)piperazin-1-yl)ethyl)-N6-propyl-4,5,6,7-tetrahydrobenzo[d]thiazole-2,6-diamine], the Ki rises from 0.0577 µM to 0.269 µM (4.7-fold).

same assay, conditions: Table S2; data set of inactives, radio-ligand binding (RLB) assays; ref ChEMBL, [71]-[92]; read-out: KI; cited from earlier work

Compared with `Clc1ccc(N2CCN(CCCCNc3noc(-c4ccccc4)n3)CC2)cc1` [SC62, N-[4-[4-(4-chlorophenyl)piperazin-1-yl]butyl]-5-phenyl-1,2,4-oxadiazol-3-amine;hydrochloride], `COc1cccc(CCc2ccccc2OCCCCN2CCN(c3cccc(Cl)c3)CC2)c1` [SC102, 1-(3-chlorophenyl)-4-[4-[2-[2-(3-methoxyphenyl)ethyl]phenoxy]butyl]piperazine] is higher in Ki: 79 µM for the first, > 1000 µM for the second.

`COc1cc2c(cc1OC)CN(C=Nc1ccc3c(c1)C1SCCSC1C3)CC2` (stereo not drawn) [SC63, N-(3,4a,9,9a-tetrahydro-2H-indeno[1,2-b][1,4]dithiin-6-yl)-1-(6,7-dimethoxy-3,4-dihydro-1H-isoquinolin-2-yl)methanimine] and `COc1cc2c(cc1OC)CN(C=Nc1ccc3c(c1)C1SCCSC1CC3)CC2` (stereo not drawn) [SC64, N-(2,3,4a,5,6,10b-hexahydrobenzo[f][1,4]benzodithiin-9-yl)-1-(6,7-dimethoxy-3,4-dihydro-1H-isoquinolin-2-yl)methanimine] cannot be ordered by Ki: > 100 µM for the first, > 300 µM for the second.

First: COc1ccc2[nH]c3c(c2c1)CCN=C3c1cc([N+](=O)[O-])cn1C [SC65, 6-methoxy-1-(1-methyl-4-nitropyrrol-2-yl)-4,9-dihydro-3H-pyrido[3,4-b]indole]
Second: COc1cccc(CCc2ccccc2OCCN2CCc3cc(OC)c(OC)cc3C2)c1 [SC114, 6,7-dimethoxy-2-[2-[2-[2-(3-methoxyphenyl)ethyl]phenoxy]ethyl]-3,4-dihydro-1H-isoquinoline]
The Ki of the first is lower: 200 µM for the first, > 1000 µM for the second.

`COc1cc2c(cc1OC)CN(C=Nc1ccc3c(c1)C1SCCSC1CC3)CC2` (stereo not drawn) [SC66, N-(2,3,4a,5,6,10b-hexahydrobenzo[f][1,4]benzodithiin-9-yl)-1-(6,7-dimethoxy-3,4-dihydro-1H-isoquinolin-2-yl)methanimine] and `COc1cc2c(cc1OC)CN(C=Nc1ccc3c(c1)C(O)CC3)CC2` (stereo not drawn) [SC67, 6-[(6,7-dimethoxy-3,4-dihydro-1H-isoquinolin-2-yl)methylideneamino]-2,3-dihydro-1H-inden-1-ol] cannot be ordered by Ki: > 100 µM for the first, > 300 µM for the second.

`OCc1cccn2ncc(CN3CCN(c4ccc(Cl)cc4)CC3)c12` [SC70, [3-[[4-(4-chlorophenyl)piperazin-1-yl]methyl]pyrazolo[1,5-a]pyridin-4-yl]methanol] and `FCCOc1ccc(N2CCN(Cc3cnn4ccccc34)CC2)cc1` [SC98, 3-[[4-[4-(2-fluoroethoxy)phenyl]piperazin-1-yl]methyl]pyrazolo[1,5-a]pyridine] are the same in Ki: 79 µM for the first, 79 µM for the second.

Compared with `N#CC(C#N)=Cc1ccc(CN2CCN(c3ccccc3)CC2)[nH]1` [SC71, 2-[[5-[(4-phenylpiperazin-1-yl)methyl]-1H-pyrrol-2-yl]methylidene]propanedinitrile], `Fc1ccc(N2CCN(Cc3cn4ccncc4n3)CC2)cc1` [SC95, 2-[[4-(4-fluorophenyl)piperazin-1-yl]methyl]imidazo[1,2-a]pyrazine] is lower in Ki: > 100 µM for the first, 68 µM for the second. The second binds more tightly here.

First: CCCNC1CCn2ncc(C(=O)OC)c2C1 (stereo not drawn) [SC94, methyl 5-(propylamino)-4,5,6,7-tetrahydropyrazolo[1,5-a]pyridine-3-carboxylate]
Second: CCCN(CCC)[C@@H]1CCn2nccc2C1 [SC97, (5R)-N,N-dipropyl-4,5,6,7-tetrahydropyrazolo[1,5-a]pyridin-5-amine]
The Ki of the first is higher: > 100 µM for the first, 55 µM for the second.

Going from `Cc1ccc(CNCC2(F)CCN(C(=O)c3cc(Br)cs3)CC2)nc1` [SC96, (4-bromothiophen-2-yl)-[4-fluoro-4-[[(5-methylpyridin-2-yl)methylamino]methyl]piperidin-1-yl]methanone] to `COc1cccc(CCc2ccccc2OCCCCN2CCN(C)CC2)c1` [SC116, 1-[4-[2-[2-(3-methoxyphenyl)ethyl]phenoxy]butyl]-4-methylpiperazine], the Ki rises from 100 µM to > 1000 µM. The first binds more tightly here.

`CCCNCCCCNC(=O)c1ccc(-c2ccccc2)cc1` [SC99, 4-phenyl-N-[4-(propylamino)butyl]benzamide] and `COc1cccc(CCc2ccccc2OCCCCN2CCc3ccccc3C2)c1` [SC113, 2-[4-[2-[2-(3-methoxyphenyl)ethyl]phenoxy]butyl]-3,4-dihydro-1H-isoquinoline] cannot be ordered by Ki: > 100 µM for the first, > 1000 µM for the second.

First: COc1cccc(CCc2ccccc2OCCCCN2CCN(c3ccc(F)cc3)CC2)c1 [SC100, 1-(4-fluorophenyl)-4-[4-[2-[2-(3-methoxyphenyl)ethyl]phenoxy]butyl]piperazine]
Second: COc1cccc(CCc2ccccc2OCCCN2CCN(c3ccc(F)cc3)CC2)c1 [SC106, 1-(4-fluorophenyl)-4-[3-[2-[2-(3-methoxyphenyl)ethyl]phenoxy]propyl]piperazine]
The Ki of the first is 2-fold higher: 1320 µM for the first, 655 µM for the second. The second binds more tightly here.

First: COc1cccc(CCc2ccccc2OCCN2CCN(c3ncccn3)CC2)c1 [SC101, 2-[4-[2-[2-[2-(3-methoxyphenyl)ethyl]phenoxy]ethyl]piperazin-1-yl]pyrimidine]
Second: COc1cccc(CCc2ccccc2OCCN2CCN(c3ccc(F)cc3)CC2)c1 [SC109, 1-(4-fluorophenyl)-4-[2-[2-[2-(3-methoxyphenyl)ethyl]phenoxy]ethyl]piperazine]
The Ki of the first is lower: 629 µM for the first, > 1000 µM for the second. The first binds more tightly here.

First: COc1cccc(CCc2ccccc2OCCCCCN2CCN(c3cccc(Cl)c3)CC2)c1 [SC103, 1-(3-chlorophenyl)-4-[5-[2-[2-(3-methoxyphenyl)ethyl]phenoxy]pentyl]piperazine]
Second: COc1cccc(CCc2ccccc2OCCCN2CCN(c3cccc(Cl)c3)CC2)c1 [SC107, 1-(3-chlorophenyl)-4-[3-[2-[2-(3-methoxyphenyl)ethyl]phenoxy]propyl]piperazine]
The Ki of the first is higher: > 1000 µM for the first, 298 µM for the second.

`COc1cccc(CCc2ccccc2OCCN2CCN(c3cccc(C(F)(F)F)c3)CC2)c1` [SC104, 1-[2-[2-[2-(3-methoxyphenyl)ethyl]phenoxy]ethyl]-4-[3-(trifluoromethyl)phenyl]piperazine] and `COc1cccc(CCc2ccccc2OCCCN2CCN(c3cccc(C(F)(F)F)c3)CC2)c1` [SC105, 1-[3-[2-[2-(3-methoxyphenyl)ethyl]phenoxy]propyl]-4-[3-(trifluoromethyl)phenyl]piperazine] cannot be ordered by Ki: > 1000 µM for the first, 1410 µM for the second.

`COc1cccc(CCc2ccccc2OCCCCCN2CCN(c3ccccc3OC)CC2)c1` [SC108, 1-(2-methoxyphenyl)-4-[5-[2-[2-(3-methoxyphenyl)ethyl]phenoxy]pentyl]piperazine] and `COc1cccc(CCc2ccccc2OCCCCCN2CCN(C)CC2)c1` [SC111, 1-[5-[2-[2-(3-methoxyphenyl)ethyl]phenoxy]pentyl]-4-methylpiperazine] cannot be ordered by Ki: > 1000 µM for the first, > 1000 µM for the second.

`COc1cccc(CCc2ccccc2OCCCCN2CCN(c3cccc(C(F)(F)F)c3)CC2)c1` [SC110, 1-[4-[2-[2-(3-methoxyphenyl)ethyl]phenoxy]butyl]-4-[3-(trifluoromethyl)phenyl]piperazine] and `COc1cccc(CCc2ccccc2OCCCCN2CCc3cc(OC)c(OC)cc3C2)c1` [SC112, 6,7-dimethoxy-2-[4-[2-[2-(3-methoxyphenyl)ethyl]phenoxy]butyl]-3,4-dihydro-1H-isoquinoline] cannot be ordered by Ki: > 1000 µM for the first, > 1000 µM for the second.

same assay, conditions: active data set; ref ChEMBL; read-out: KI / binding affinity; cited from earlier work

For `O=C1CCc2ccc(OCCCCN3CCCN(c4ccc(O)c5[nH]c(=O)ccc45)CC3)cc2N1` [SC52, 8-hydroxy-5-(4-(4-((2-oxo-1,2,3,4-tetrahydroquinolin-7-yl)oxy)butyl)-1,4-diazepan-1-yl)quinolin-2(1H)-one], the Ki is listed as < 0.002 µM.

same assay, conditions: cited from earlier work

For `NC(=O)C[S@@+]([O-])C(c1ccccc1)c1ccccc1` [SC72, 2-[(R)-benzhydrylsulfinyl]acetamide], the Ki is listed as > 100 µM.

same assay, conditions: read-out: KI; cited from earlier work

Compared with `CCCN(CCN1CCN(c2ccnc3ccccc23)CC1)[C@H]1CCc2nc(N)sc2C1` [SC57, (S)-N6-propyl-N6-(2-(4-(quinolin-4-yl)piperazin-1-yl)ethyl)-4,5,6,7-tetrahydrobenzo[d]thiazole-2,6-diamine], `COc1cccc(CCc2ccccc2OCCCN2CCc3cc(OC)c(OC)cc3C2)c1` [SC115, 6,7-dimethoxy-2-[3-[2-[2-(3-methoxyphenyl)ethyl]phenoxy]propyl]-3,4-dihydro-1H-isoquinoline] is higher in Ki: 0.109 µM for the first, > 1000 µM for the second.
